Reference: patent US12030878B2 (BRISTOL-MYERS SQUIBB COMPANY, priority 2017, dated 2024)

How the values were obtained:
Format in all cases: cell-based
human TLR8 = target: T1, human TLR8 (Homo sapiens, UniProt Q9NR97); experiment: TLR8 inhibition reporter assay (HEK-Blue SEAP); details: HEK-Blue cells overexpressing human TLR8, stimulated with R848 15.9 μM, 22 hour incubation
T1 construct: host or cells: HEK-Blue cells
T1 sequence (Q9NR97 27-1041): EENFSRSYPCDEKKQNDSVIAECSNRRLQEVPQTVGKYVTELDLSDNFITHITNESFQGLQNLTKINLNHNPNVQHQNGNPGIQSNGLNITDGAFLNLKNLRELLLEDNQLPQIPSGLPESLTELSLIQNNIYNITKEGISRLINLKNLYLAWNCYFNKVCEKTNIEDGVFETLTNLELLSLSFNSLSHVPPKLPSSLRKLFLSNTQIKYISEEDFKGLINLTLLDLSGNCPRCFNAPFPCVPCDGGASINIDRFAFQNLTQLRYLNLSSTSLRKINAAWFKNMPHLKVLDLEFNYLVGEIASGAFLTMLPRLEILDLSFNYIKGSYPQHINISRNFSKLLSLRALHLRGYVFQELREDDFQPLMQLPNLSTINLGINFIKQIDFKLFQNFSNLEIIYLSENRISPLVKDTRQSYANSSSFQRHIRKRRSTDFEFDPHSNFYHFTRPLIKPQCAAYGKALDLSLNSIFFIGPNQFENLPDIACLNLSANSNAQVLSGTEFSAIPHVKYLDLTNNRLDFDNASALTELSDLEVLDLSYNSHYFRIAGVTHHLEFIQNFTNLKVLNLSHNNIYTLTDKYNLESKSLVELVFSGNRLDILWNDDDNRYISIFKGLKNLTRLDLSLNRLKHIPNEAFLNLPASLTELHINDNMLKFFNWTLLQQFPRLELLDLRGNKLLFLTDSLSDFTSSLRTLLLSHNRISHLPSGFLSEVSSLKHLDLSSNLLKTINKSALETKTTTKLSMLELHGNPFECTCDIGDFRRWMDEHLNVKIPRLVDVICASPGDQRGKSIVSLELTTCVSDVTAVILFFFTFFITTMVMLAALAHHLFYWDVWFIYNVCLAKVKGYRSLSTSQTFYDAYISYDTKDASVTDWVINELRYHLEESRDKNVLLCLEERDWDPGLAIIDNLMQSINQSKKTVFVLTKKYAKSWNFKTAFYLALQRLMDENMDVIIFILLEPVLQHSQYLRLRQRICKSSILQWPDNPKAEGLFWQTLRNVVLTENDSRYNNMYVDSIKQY
How it was run: (§1)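 Stimulation followed a 30 min room-temperature compound exposure (final 0.05 nM-50 μM): TLR7 cells with 7.5 μM gardiquimod, TLR8 with 15.9 μM R848, TLR9 with 5 nM ODN2006. After 22 h at 37 °C, secreted alkaline phosphatase was detected colorimetrically and inhibition calculated against DMSO and known-inhibitor controls.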

human TLR7 = target: T2, human TLR7 (Homo sapiens, UniProt Q9NYK1); experiment: TLR7 inhibition reporter assay (HEK-Blue SEAP); details: HEK-Blue cells overexpressing human TLR7, stimulated with gardiquimod 7.5 μM, 22 hour incubation
T2 construct: host or cells: HEK-Blue cells
T2 sequence (Q9NYK1 27-1049): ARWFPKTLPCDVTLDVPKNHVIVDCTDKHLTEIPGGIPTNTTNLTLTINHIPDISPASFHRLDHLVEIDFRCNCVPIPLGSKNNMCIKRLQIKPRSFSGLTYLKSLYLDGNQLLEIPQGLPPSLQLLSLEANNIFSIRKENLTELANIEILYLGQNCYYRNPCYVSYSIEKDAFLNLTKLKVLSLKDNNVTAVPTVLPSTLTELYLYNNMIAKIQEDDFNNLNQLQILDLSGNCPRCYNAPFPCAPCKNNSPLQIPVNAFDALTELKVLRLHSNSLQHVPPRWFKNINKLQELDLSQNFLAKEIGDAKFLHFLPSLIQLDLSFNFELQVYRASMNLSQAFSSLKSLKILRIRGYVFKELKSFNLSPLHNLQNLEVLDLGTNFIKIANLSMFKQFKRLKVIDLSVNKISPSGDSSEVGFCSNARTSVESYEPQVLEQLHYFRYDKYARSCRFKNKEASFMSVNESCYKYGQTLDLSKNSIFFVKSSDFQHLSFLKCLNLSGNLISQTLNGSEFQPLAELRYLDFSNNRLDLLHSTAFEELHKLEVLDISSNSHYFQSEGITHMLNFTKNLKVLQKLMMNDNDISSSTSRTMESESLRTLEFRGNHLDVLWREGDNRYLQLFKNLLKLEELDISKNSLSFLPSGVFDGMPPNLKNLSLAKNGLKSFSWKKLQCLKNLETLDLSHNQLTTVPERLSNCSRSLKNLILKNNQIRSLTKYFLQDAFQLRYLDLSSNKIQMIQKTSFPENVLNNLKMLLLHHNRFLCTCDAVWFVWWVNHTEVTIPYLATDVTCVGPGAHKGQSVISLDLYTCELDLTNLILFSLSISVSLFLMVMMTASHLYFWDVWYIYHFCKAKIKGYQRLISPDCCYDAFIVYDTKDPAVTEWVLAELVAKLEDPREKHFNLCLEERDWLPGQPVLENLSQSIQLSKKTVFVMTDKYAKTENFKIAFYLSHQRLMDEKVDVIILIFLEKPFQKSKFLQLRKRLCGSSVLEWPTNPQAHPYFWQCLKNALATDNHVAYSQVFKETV
How it was run: as §1

human TLR9 = target: T3, human TLR9 (Homo sapiens, UniProt Q9NR96); experiment: TLR9 inhibition reporter assay (HEK-Blue SEAP); details: HEK-Blue cells overexpressing human TLR9, stimulated with ODN2006 5 nM, 22 hour incubation
T3 construct: host or cells: HEK-Blue cells
T3 sequence (Q9NR96 26-1032): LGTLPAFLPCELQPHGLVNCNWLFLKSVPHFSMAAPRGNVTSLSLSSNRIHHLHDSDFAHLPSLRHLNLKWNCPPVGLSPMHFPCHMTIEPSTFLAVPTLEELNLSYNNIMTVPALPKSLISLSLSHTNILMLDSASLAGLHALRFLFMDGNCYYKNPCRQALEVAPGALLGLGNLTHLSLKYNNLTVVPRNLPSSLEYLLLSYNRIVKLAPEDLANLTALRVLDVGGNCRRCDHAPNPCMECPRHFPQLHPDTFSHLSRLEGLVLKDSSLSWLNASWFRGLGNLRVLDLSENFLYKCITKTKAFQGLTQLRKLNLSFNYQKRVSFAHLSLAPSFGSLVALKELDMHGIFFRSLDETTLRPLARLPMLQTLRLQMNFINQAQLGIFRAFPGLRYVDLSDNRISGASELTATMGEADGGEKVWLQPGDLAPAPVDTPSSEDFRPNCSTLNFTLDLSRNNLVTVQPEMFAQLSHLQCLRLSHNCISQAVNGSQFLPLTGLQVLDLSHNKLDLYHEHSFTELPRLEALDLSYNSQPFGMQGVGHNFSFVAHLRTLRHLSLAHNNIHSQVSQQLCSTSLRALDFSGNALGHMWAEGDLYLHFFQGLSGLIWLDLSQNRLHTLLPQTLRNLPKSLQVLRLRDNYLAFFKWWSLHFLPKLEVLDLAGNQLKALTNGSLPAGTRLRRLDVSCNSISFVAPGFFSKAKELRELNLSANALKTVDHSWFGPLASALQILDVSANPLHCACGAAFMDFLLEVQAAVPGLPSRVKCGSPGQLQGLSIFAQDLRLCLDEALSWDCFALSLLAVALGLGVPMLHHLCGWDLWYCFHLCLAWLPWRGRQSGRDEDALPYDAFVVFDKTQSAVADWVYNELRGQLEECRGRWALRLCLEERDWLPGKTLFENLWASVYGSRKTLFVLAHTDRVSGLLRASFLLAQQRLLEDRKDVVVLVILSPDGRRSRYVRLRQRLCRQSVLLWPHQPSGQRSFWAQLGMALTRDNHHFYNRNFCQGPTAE
How it was run: as §1

IC50 (human TLR8) [nM] | IC50 (human TLR7) [nM] | IC50 (human TLR9) [nM] | Compound
28.2 | 1.8 | 5670 | Cc1cc(-c2[nH]c3ccc(O[C@H]4CCCN(CC(=O)N(C)C)C4)cc3c2C(C)C)cn2ncnc12 [Example 83, (S)-2-(3-((3-isopropyl-2-(8-methyl-[1,2,4]triazolo[1,5-a]pyridin-6-yl)-1H-indol-5-yl)oxy)piperidin-1-yl)-N,N-dimethylacetamide]
9.2 | 6.3 | 4410 | Cc1cc(-c2[nH]c3ccc(OC4CCN(CC(C)(C)O)CC4)cc3c2C(C)C)cn2ncnc12 [Example 22, 1-(4-((3-isopropyl-2-(8-methyl-[1,2,4]triazolo[1,5-a]pyridin-6-yl)-1H-indol-5-yl)oxy)piperidin-1-yl)-2-methylpropan-2-ol]
16.5 | 7.6 | 11100 | Cc1cc(-c2[nH]c3ccc(O[C@H]4CCCN(C(=O)CN(C)C)C4)cc3c2C(C)C)cn(C)c1=O [Example 98, (S)-5-(5-((1-(dimethylglycyl)piperidin-3-yl)oxy)-3-isopropyl-1H-indol-2-yl)-1,3-dimethylpyridin-2(1H)-one]
27 | 3.6 | 3640 | Cc1cc(-c2[nH]c3ccc(O[C@H]4CCCN(C)C4)cc3c2C(C)C)cn2ncnc12 [Example 38, (S)-6-(3-isopropyl-5-((1-methylpiperidin-3-yl)oxy)-1H-indol-2-yl)-8-methyl-[1,2,4]triazolo[1,5-a]pyridine]
0.7 | 1.3 | 379 | Cc1cc(-c2[nH]c3ccc(OC4CCN(C)CC4)cc3c2C(C)C)cc(C)n1 [Example 29, 2-(2,6-dimethylpyridin-4-yl)-3-isopropyl-5-((1-methylpiperidin-4-yl)oxy)-1H-indole]
1.7 | 5.9 | 2290 | Cc1cc(-c2[nH]c3ccc(OC4CCN(C5CCOCC5)CC4)cc3c2C(C)C)cn2ncnc12 [Example 68, 6-(3-isopropyl-5-((1-(tetrahydro-2H-pyran-4-yl)piperidin-4-yl)oxy)-1H-indol-2-yl)-8-methyl-[1,2,4]triazolo[1,5-a]pyridine]
0.7 | 0.8 | 1150 | COc1cc(-c2[nH]c3ccc(OC4CCN(C(C)C)CC4)cc3c2C(C)C)cn2ncnc12 [Example 66, 6-(3-isopropyl-5-((1-isopropylpiperidin-4-yl)oxy)-1H-indol-2-yl)-8-methoxy-[1,2,4]triazolo[1,5-a]pyridine]

Further lines, the molecule ahead of its results:

Compound | IC50 (human TLR8) [nM] | IC50 (human TLR7) [nM] | IC50 (human TLR9) [nM]
Cc1c(-c2[nH]c3ccc(OCC4CCN(C(C)C)CC4)cc3c2C(C)C)cn(C)c(=O)c1C [Example 49, 5-(3-isopropyl-5-((1-isopropylpiperidin-4-yl)methoxy)-1H-indol-2-yl)-1,3,4-trimethylpyridin-2(1H)-one] | 1.8 | 9.2 | 4120
CNC(=O)CN1CCC(Oc2ccc3[nH]c(-c4cc(C)c(=O)n(C)c4)c(C(C)C)c3c2)CC1 [Example 112, 2-(4-((2-(1,5-dimethyl-6-oxo-1,6-dihydropyridin-3-yl)-3-isopropyl-1H-indol-5-yl)oxy)piperidin-1-yl)-N-methylacetamide] | 8.9 | 10.2 | > 50000
Cc1c(-c2[nH]c3ccc(OCC4CN(CC(C)(C)O)C4)cc3c2C(C)C)cn2cnnc2c1C [Example 28, 1-(3-(((2-(7,8-dimethyl-[1,2,4]triazolo[4,3-a]pyridin-6-yl)-3-isopropyl-1H-indol-5-yl)oxy)methyl)azetidin-1-yl)-2-methylpropan-2-ol] | 21.7 | 6.1 | 1250
Cc1cc(-c2[nH]c3ccc(OC4CCNCC4)cc3c2C(C)C)cc(C)n1 [Example 1, 2-(2,6-dimethylpyridin-4-yl)-3-isopropyl-5-(piperidin-4-yloxy)-1H-indole] | 2.1 | 2.9 | 241
Cc1cc(-c2[nH]c3ccc(OC4CCN(CC(=O)O)CC4)cc3c2C(C)C)cc(C)n1 [Example 197, 2-(4-((2-(2,6-dimethylpyridin-4-yl)-3-isopropyl-1H-indol-5-yl)oxy)piperidin-1-yl)acetic acid] | 462 | 679 | 25200
Cc1cc(-c2[nH]c3ccc(OCC(=O)N4CCC5(CCNCC5)C4)cc3c2C(C)C)ccn1 [Example 144, 2-((3-isopropyl-2-(2-methylpyridin-4-yl)-1H-indol-5-yl)oxy)-1-(2,8-diazaspiro[4.5]decan-2-yl)ethan-1-one] | 176 | 917 | 296
COc1ccc(-c2[nH]c3ccc(OCC(=O)NC4CN5CCC4CC5)cc3c2C(C)C)cc1OC (stereo not drawn) [Example 125, 2-((2-(3,4-dimethoxyphenyl)-3-isopropyl-1H-indol-5-yl)oxy)-N-((1s,4s)-quinuclidin-3-yl)acetamide] | 44.4 | 19 | 6330
COc1ccc(-c2[nH]c3ccc(OCC4CCNCC4)cc3c2C(C)C)cc1OC [Example 159, 2-(3,4-dimethoxyphenyl)-3-isopropyl-5-(piperidin-4-ylmethoxy)-1H-indole] | 25.6 | 36.1 | 2320
